Laboratory results published in patent publication US7138361B2, “Herbicidal heterocycles” (E. I. du Pont de Nemours and Company, priority 2000, dated 2006).

Assays:
Experiment in all cases: Test C preemergence
Assay type in all cases: in vivo
Nightshade [1] = test system: Nightshade
Description: (§1) Seeds of plant species selected from bermudagrass (Cynodon dactylon), Surinam grass (Brachiaria decumbens), cocklebur (Xanthium strumarium), corn (Zea mays), crabgrass (Digitaria sanguinalis), woolly cupgrass (Eriochloa villosa), giant foxtail (Setaria faberii), goosegrass (Eleusine indica), johnsongrass (Sorghum halepense), kochia (Kochia scoparia), lambsquarters (Chenopodium album), morningglory (Ipomoea hederacea), yellow nutsedge (Cyperus esculentus), pigweed (Amaranthus retroflexus), common ragweed (Ambrosia elatior), soybean (Glycine max) and velvetleaf (Abutilon theophrasti) were planted and treated preemergence with test chemicals formulated in a non-phytotoxic solvent mixture which included a surfactant.
(§2) At the same time, plants selected from these crop and weed species and also winter barley (Hordeum vulgare), blackgrass (Alopecurus myosuroides), canary grass (Phalaris minor), chickweed (Stellaria media), downy brome (Bromus tectorum), green foxtail (Setaria viridis), Italian ryegrass (Lolium multiflorum), wheat (Triticum aestivum), wild oat (Avena fatua) and windgrass (Apera spica-venti) were treated with postemergence applications of some of the test chemicals formulated in the same manner. Plants ranged in height from 2 to 18 cm (1- to 4-leaf stage) for postemergence treatments. Plant species in the flooded paddy test consisted of rice (Oryza saliva), smallflower flatsedge (Cyperus difformis), duck salad (Heteranthera limosa) and barnyardgrass (Echinochloa crus-galli) grown to the 2-leaf stage for testing. Treated plants and controls were maintained in a greenhouse for 12 to 14 days, after which time all species were compared to controls and visually evaluated. Plant response ratings, summarized in Table C, are based on a scale of 0 to 100 where 0 is no effect and 100 is complete control. A dash (-) response means no test result.

Sunflower = settings: Rate 62 g/ha; scale 0 to 100, 0 no effect, 100 complete control
Description: as §1, §2

[2] = test system: Surinam grass (Brachiaria decumbens); settings: for Plant response rating (0 to 100), Surinam grass: Rate 250 g/ha, visual evaluation after 12 to 14 days
Description: as §1, §2

[3] = test system: bermudagrass (Cynodon dactylon); settings: for Plant response rating (0 to 100 where 0 is no effect and 100 is complete control), Bermudagrass: Rate 250 g/ha, visual evaluation after 12 to 14 days
Description: as §1, §2

[4] = test system: cocklebur (Xanthium strumarium); settings: for Plant response rating (0 to 100), Cocklebur: Rate 250 g/ha, visual evaluation after 12 to 14 days
Description: as §1, §2

corn (Zea mays) = settings: for Plant response rating (0 to 100), Corn: Rate 250 g/ha, visual evaluation after 12 to 14 days
Description: as §1, §2

[5] = test system: crabgrass (Digitaria sanguinalis); settings: for Plant response rating (0 to 100), Crabgrass: Rate 250 g/ha, visual evaluation after 12 to 14 days
Description: as §1, §2

[6] = test system: giant foxtail (Setaria faberii); settings: for Plant response rating (0 to 100), Foxtail, Giant: Rate 250 g/ha, visual evaluation after 12 to 14 days
Description: as §1, §2

[7] = test system: goosegrass (Eleusine indica); settings: for Plant response rating (0 to 100), Goosegrass: Rate 250 g/ha, visual evaluation after 12 to 14 days
Description: as §1, §2

[8] = test system: johnsongrass (Sorghum halepense); settings: for Plant response rating (0 to 100), Johnsongrass: Rate 250 g/ha, visual evaluation after 12 to 14 days
Description: as §1, §2

kochia (Kochia scoparia) = settings: for Plant response rating (0 to 100), Kochia: Rate 250 g/ha, visual evaluation after 12 to 14 days
Description: as §1, §2

[9] = test system: lambsquarters (Chenopodium album); settings: for Plant response rating (0 to 100), Lambsquarters: Rate 250 g/ha, visual evaluation after 12 to 14 days
Description: as §1, §2

[10] = test system: morningglory (Ipomoea hederacea); settings: for Plant response rating (0 to 100), Morningglory: Rate 250 g/ha, visual evaluation after 12 to 14 days
Description: as §1, §2

[11] = test system: pigweed (Amaranthus retroflexus); settings: for Plant response rating (0 to 100), Pigweed: Rate 250 g/ha, visual evaluation after 12 to 14 days
Description: as §1, §2

soybean (Glycine max) = settings: for Plant response rating (0 to 100), Soybean: Rate 250 g/ha, visual evaluation after 12 to 14 days
Description: as §1, §2

[12] = test system: velvetleaf (Abutilon theophrasti); settings: for Plant response rating (0 to 100), Velvetleaf: Rate 250 g/ha, visual evaluation after 12 to 14 days
Description: as §1, §2

[13] = test system: woolly cupgrass (Eriochloa villosa); settings: for Plant response rating (0 to 100), Cupgrass, Woolly: Rate 250 g/ha, visual evaluation after 12 to 14 days
Description: as §1, §2

[14] = test system: yellow nutsedge (Cyperus esculentus); settings: for Plant response rating (0 to 100), Nutsedge: Rate 250 g/ha, visual evaluation after 12 to 14 days
Description: as §1, §2

Nightshade [15] = settings: Rate 250 g/ha, visual evaluation after 12 to 14 days
[16] = Rate 62 g/ha, scale 0 to 100, 0 no effect, 100 complete control
[17] = Rate 125 g/ha, scale 0 to 100, 0 no effect, 100 complete control
[18] = preemergence, Rate 31 g/ha, scale 0 to 100
[19] = preemergence, Rate 125 g/ha, scale 0 to 100, 0 no effect, 100 complete control

CC(C)c1ccn(C2OCN(c3cccc(C(F)(F)F)c3)C2=O)n1 (centres unmarked) [Compound 27]
20: Plant response rating, Sunflower (Sunflower) | Plant response rating, Corn (corn (Zea mays); [16]) | Plant response rating, Corn (corn (Zea mays); [19]) | Plant response rating, Johnsongrass [8, 16] | Plant response rating, Morningglory [10, 16] | Plant response rating, Morningglory [10, 19]
100: Plant response rating (0 to 100 where 0 is no effect and 100 is complete control), Bermudagrass ([3]; preemergence) | Plant response rating, Bermudagrass [3, 19] | Plant response rating, Crabgrass [5, 16] | Plant response rating (0 to 100), Crabgrass ([5]; preemergence) | Plant response rating, Crabgrass [5, 19] | Plant response rating, Foxtail, Giant [6, 19] | Plant response rating (0 to 100), Goosegrass ([7]; preemergence) | Plant response rating, Goosegrass [7, 19] | Plant response rating, Kochia (kochia (Kochia scoparia); [16]) | Plant response rating (0 to 100), Kochia (kochia (Kochia scoparia); preemergence) | Plant response rating, Kochia (kochia (Kochia scoparia); [19]) | Plant response rating, Lambsquarters [9, 16] | Plant response rating, Lambsquarters [9, 18] | Plant response rating (0 to 100), Lambsquarters ([9]; preemergence) | Plant response rating, Lambsquarters [9, 19] | Plant response rating, Pigweed [11, 18] | Plant response rating (0 to 100), Pigweed ([11]; preemergence) | Plant response rating, Pigweed [11, 19] | Plant response rating (0 to 100), Cupgrass, Woolly ([13]; preemergence)
70: Plant response rating, Foxtail, Giant [6, 16]
50: Plant response rating, Surinam grass [2, 16] | Plant response rating, Surinam grass [2, 19] | Plant response rating (0 to 100), Johnsongrass ([8]; preemergence) | Plant response rating, Johnsongrass [8, 19] | Plant response rating (0 to 100), Soybean (soybean (Glycine max); preemergence) | Plant response rating, Cupgrass, Woolly [13, 16] | Plant response rating, Cupgrass, Woolly [13, 18]
40: Plant response rating, Goosegrass [7, 18] | Plant response rating, Soybean (soybean (Glycine max); [19])
0: Plant response rating, Nightshade (Nightshade [1]; Rate 31 g/ha, scale 0 to 100) | Plant response rating, Nightshade (Nightshade [1]; [16]) | Plant response rating, Nightshade (Nightshade [1]; [17]) | Plant response rating, Surinam grass [2, 18] | Plant response rating, Cocklebur [4, 16] | Plant response rating, Cocklebur [4, 18] | Plant response rating (0 to 100), Cocklebur ([4]; preemergence) | Plant response rating, Cocklebur [4, 19] | Plant response rating, Corn (corn (Zea mays); [18]) | Plant response rating, Foxtail, Giant [6, 18] | Plant response rating (0 to 100), Foxtail, Giant ([6]; preemergence) | Plant response rating, Johnsongrass [8, 18] | Plant response rating, Kochia (kochia (Kochia scoparia); [18]) | Plant response rating, Morningglory [10, 18] | Plant response rating, Pigweed [11, 16] | Plant response rating, Soybean (soybean (Glycine max); [18]) | Plant response rating, Velvetleaf [12, 16] | Plant response rating, Velvetleaf [12, 18] | Plant response rating (0 to 100), Velvetleaf ([12]; preemergence) | Plant response rating, Velvetleaf [12, 19] | Plant response rating (0 to 100), Nightshade (Nightshade [15])
60: Plant response rating, Nutsedge [14, 16] | Plant response rating, Nutsedge [14, 19]
80: Plant response rating (0 to 100), Surinam grass ([2]; preemergence) | Plant response rating, Cupgrass, Woolly [13, 19] | Plant response rating (0 to 100), Nutsedge ([14]; preemergence)
90: Plant response rating, Bermudagrass [3, 16] | Plant response rating, Crabgrass [5, 18] | Plant response rating, Goosegrass [7, 16]
30: Plant response rating, Bermudagrass [3, 18] | Plant response rating (0 to 100), Corn (corn (Zea mays); preemergence) | Plant response rating (0 to 100), Morningglory ([10]; preemergence) | Plant response rating, Soybean (soybean (Glycine max); [16]) | Plant response rating, Nutsedge [14, 18]

O=C1C(n2ccc(C3CC3)n2)OCN1c1cccc(C(F)(F)F)c1 (centres unmarked) [Compound 28]
30: Plant response rating (0 to 100), Corn (corn (Zea mays); preemergence) | Plant response rating, Corn (corn (Zea mays); [19]) | Plant response rating, Cupgrass, Woolly [13, 18]
40: Plant response rating, Goosegrass [7, 18] | Plant response rating, Kochia (kochia (Kochia scoparia); [16]) | Plant response rating (0 to 100), Soybean (soybean (Glycine max); preemergence) | Plant response rating, Soybean (soybean (Glycine max); [19])
20: Plant response rating, Sunflower (Sunflower) | Plant response rating, Surinam grass [2, 16] | Plant response rating, Surinam grass [2, 18] | Plant response rating, Bermudagrass [3, 18]
0: Plant response rating, Nightshade (Nightshade [1]; Rate 31 g/ha, scale 0 to 100) | Plant response rating, Nightshade (Nightshade [1]; [16]) | Plant response rating, Cocklebur [4, 18] | Plant response rating (0 to 100), Cocklebur ([4]; preemergence) | Plant response rating, Cocklebur [4, 19] | Plant response rating, Corn (corn (Zea mays); [16]) | Plant response rating, Corn (corn (Zea mays); [18]) | Plant response rating, Foxtail, Giant [6, 16] | Plant response rating, Foxtail, Giant [6, 18] | Plant response rating (0 to 100), Foxtail, Giant ([6]; preemergence) | Plant response rating, Johnsongrass [8, 18] | Plant response rating, Kochia (kochia (Kochia scoparia); [18]) | Plant response rating, Morningglory [10, 16] | Plant response rating, Morningglory [10, 18] | Plant response rating (0 to 100), Morningglory ([10]; preemergence) | Plant response rating, Morningglory [10, 19] | Plant response rating, Soybean (soybean (Glycine max); [16]) | Plant response rating, Soybean (soybean (Glycine max); [18]) | Plant response rating, Velvetleaf [12, 16] | Plant response rating, Velvetleaf [12, 18] | Plant response rating (0 to 100), Velvetleaf ([12]; preemergence) | Plant response rating, Velvetleaf [12, 19]
50: Plant response rating, Bermudagrass [3, 16] | Plant response rating, Johnsongrass [8, 16] | Plant response rating (0 to 100), Pigweed ([11]; preemergence) | Plant response rating, Cupgrass, Woolly [13, 16] | Plant response rating, Nutsedge [14, 16] | Plant response rating, Nutsedge [14, 18] | Plant response rating (0 to 100), Nutsedge ([14]; preemergence) | Plant response rating, Nutsedge [14, 19]
70: Plant response rating, Nightshade (Nightshade [1]; [17]) | Plant response rating (0 to 100), Johnsongrass ([8]; preemergence) | Plant response rating, Johnsongrass [8, 19] | Plant response rating, Pigweed [11, 16] | Plant response rating, Pigweed [11, 18] | Plant response rating, Cupgrass, Woolly [13, 19]
80: Plant response rating, Goosegrass [7, 16]
100: Plant response rating (0 to 100 where 0 is no effect and 100 is complete control), Bermudagrass ([3]; preemergence) | Plant response rating, Bermudagrass [3, 19] | Plant response rating (0 to 100), Crabgrass ([5]; preemergence) | Plant response rating, Crabgrass [5, 19] | Plant response rating, Foxtail, Giant [6, 19] | Plant response rating (0 to 100), Goosegrass ([7]; preemergence) | Plant response rating, Goosegrass [7, 19] | Plant response rating (0 to 100), Kochia (kochia (Kochia scoparia); preemergence) | Plant response rating, Kochia (kochia (Kochia scoparia); [19]) | Plant response rating, Lambsquarters [9, 16] | Plant response rating, Lambsquarters [9, 18] | Plant response rating (0 to 100), Lambsquarters ([9]; preemergence) | Plant response rating, Lambsquarters [9, 19] | Plant response rating, Pigweed [11, 19] | Plant response rating (0 to 100), Cupgrass, Woolly ([13]; preemergence)
60: Plant response rating (0 to 100), Surinam grass ([2]; preemergence) | Plant response rating, Surinam grass [2, 19]
90: Plant response rating, Crabgrass [5, 16] | Plant response rating, Crabgrass [5, 18] | Plant response rating (0 to 100), Nightshade (Nightshade [15])
